Where “and” joins values, the source holds several entries; their conditions need not be identical. Equal values may be shown once. Read-outs that look alike come from different tables or passages of the source.
How the values were obtained:
[1] = Plasma and organ concentrations of CBD and CBD-Mono-VHS after IP administration (Example 22); assay type: in vivo; conditions: mice, IP, Low Dose (30 μg CBD/mouse), 70 Minutes, individual animals, listed as CBD-Mono-Val-Mono-HS
Protocol: CBD-Mono-VHS was administered intraperitoneally to mice at 2 doses (30 μg and 60 μg equivalent of CBD/mouse). Seventy minutes after dosing the animals (3 mice in each dose group), all animals were sacrificed. Blood, as well as organs (liver, spleen, kidney, and brain), were harvested for LC-MS/MS analysis of their content of both CBD and CBD-Mono-VHS.
Also shown is the concentration of CBD-Mono-VHS in the plasma 70 minutes after dosing.

[2] = Solubility of CBD and its analogs in Tocrisolve emulsion; assay type: physicochemical
Protocol: Formulations: 0.5% w/v CBD equivalent in Tocrisolve emulsion.
Tocrisolve composition: […] emulsion composed of a 1:4 ratio of soya oil/water that is emulsified with the block co-polymer Pluronic F68. Manufacturing process for the Tocrisolve emulsion: • Add accurately weighed amount of drug a glass vial. • Add required volume of Torcisolve blank emulsion to each vial • Vortex each vial for 5 minutes. • Sonicate each vial for 10 minutes. • Centrifuge each vial for 5 minutes at 9000 rpm at 25° C. • Collect the supernatant and analyze for CBD, CBD-Val Mono and CBD-Val-HS mono as applicable.

[3] = Organ distribution of CBD-Mono-VHS after oral administration (Example 19); assay type: in vivo, rats; conditions: rat, oral 4 mg/animal
Protocol: To determine whether CBD-Mono-VHS reaches the organs and especially the brain, two cannulated rats were administered same dose as those in Example 18. One rat was sacrificed at 2 hr. after dosing and the other at 4 hr. after dosing and the organs were harvested (brain, liver, and spleen) as well as blood for analysis.

[4] = Bioavailability of CBD-Mono-VHS from a hydrophilic suppository, PEG 1000 (Example 17); assay type: in vivo; parameters: unit not given here; conditions: rats, rectal 7.5 mg, Hydrophilic (PEG 1000) Suppository; for Plasma Concentration of CBD-Mono-VHS: individual animals
Protocol: CBD-Mono-Val-Mono-HS was formulated in PEG 1000 suppository base (a hydrophilic suppository base) at 75 mg/mL of melted base. The study was carried out in a cannulated rat model. Three animals were administered 100 μl. each of the semisolid formulation for a rectal dose of 7.5 mg CBD-Mono-VHS. […] The blood was centrifuged and the plasma was used for LC-MS/MS analysis.

[5] = assay type: physicochemical; conditions: for Concentration of CBD-Mono-Val-Mono-HS: 37° C.
Protocol: The stability CBD and CBD analogs (CBD-Mono-VHS and CBD-Di-VHS) was evaluated under acidic and alkaline conditions to simulate exposure to gastric and intestinal fluids. The procedure is outlined as follows: • 1. Stock solution of 5 mg/mL CBD, CBD-Mono-Val-Mono HS, CBD-Di-Val-Di HS was prepared. • 2. Simulated Gastric Fluid (pH 1.2)+1% (SDS) was prepared and kept in 37° C. water bath. • 3. Physiological buffer (pH 7.4)+1% SDS was prepared and kept in 37° C. water bath. • 4. 100 μL of CBD, CBD-Mono-Val-Mono HS or CBD-Di-Val-Di-HS stock in acetonitrile (equivalent to 500 μg) was spiked into separate vials containing 5 ml of either pH 1.2 and 7.4. • 5. At each time point, 100 μL of the solution was withdrawn. • 6. 900 μL acetonitrile was added to each sample. • 7. All samples centrifuged at 4° C. and 13,000 rpm. • 8. 100 μL of the supernatant was withdrawn; to this 100 μL of supernatant, 900 μL of acetonitrile was added and placed in LC vials for analysis. Tables 9, 10 and 11, and FIGS. 7a, 7b, 18, and 19 show the results.

[6] = Organ distribution of CBD-Mono-VHS after oral administration (Example 19); assay type: in vivo, rats; conditions: rat, oral 4 mg/animal; remark: listed apart in the source

C=C(C)C1CCC(C)=CC1c1c(O)cc(CCCCC)cc1OC(=O)[C@@H](NC(=O)CCC(=O)O)C(C)C (some centres unmarked) [CBD-Mono-VHS, CBD-Mono-Valinate-Mono-Hemisuccinate]
Total CBD-Mono-Val-Mono-HS, Liver [1]: 1431.98 ng and 534.11 ng and 1543.96 ng | Total CBD-Mono-Val-Mono-HS, Spleen [1]: 105.24 ng and 283.02 ng and 150.36 ng | Total CBD-Mono-Val-Mono-HS, Total ([1]; sum of the columns): 1670.831 ng and 941.765 ng and 1855.656 ng | Maximum solubility achieved in Tocrisolve ([2]; as the substance itself): 1.18 % w/v | Maximum solubility achieved in Tocrisolve (In terms of CBD) ([2]; in terms of CBD): (0.61) % w/v | Organ level of CBD-Mono-VHS, BRAIN ([3]; 2 HR): 556 ng/organ | Organ level of CBD-Mono-VHS, LIVER ([3]; 2 HR): 66484 ng/organ | Organ level of CBD-Mono-VHS, SPLEEN ([3]; 2 HR): 1438 ng/organ | Plasma level of CBD-Mono-VHS ([3]; 2 HR): 285 ng/mL | Organ level of CBD-Mono-VHS, BRAIN ([3]; 4 HR): 205 ng/organ | Organ level of CBD-Mono-VHS, LIVER ([3]; 4 HR): 8301 ng/organ | Organ level of CBD-Mono-VHS, SPLEEN ([3]; 4 HR): 392 ng/organ | Plasma level of CBD-Mono-VHS ([3]; 4 HR): 53 ng/mL | Plasma Concentration of CBD-Mono-VHS, Average ([4]; 0 hr): 0.0 | Plasma Concentration of CBD-Mono-VHS ([4]; 0 hr): 0.0 | Plasma Concentration of CBD-Mono-VHS, Average ([4]; 0.25 hr): 13.2 | Plasma Concentration of CBD-Mono-VHS ([4]; 0.25 hr): 14.7 and 10.1 and 14.8 | Plasma Concentration of CBD-Mono-VHS, Average ([4]; 0.5 hr): 38.5 | Plasma Concentration of CBD-Mono-VHS ([4]; 0.5 hr): 44.2 and 38.4 and 32.9 | Plasma Concentration of CBD-Mono-VHS, Average ([4]; 1 hr): 89.4 | Plasma Concentration of CBD-Mono-VHS ([4]; 1 hr): 106.0 and 54.3 and 108.0 | Plasma Concentration of CBD-Mono-VHS, Average ([4]; 2 hr): 114.7 | Plasma Concentration of CBD-Mono-VHS ([4]; 2 hr): 108.0 and 123.0 and 113.0 | Plasma Concentration of CBD-Mono-VHS, Average ([4]; 4 hr): 57.2 | Plasma Concentration of CBD-Mono-VHS ([4]; 4 hr): 57.5 and 60.5 and 53.5 | Plasma Concentration of CBD-Mono-VHS, Average ([4]; 6 hr): 28.7 | Plasma Concentration of CBD-Mono-VHS ([4]; 6 hr): 18.6 and 37.4 and 30.1 | Plasma Concentration of CBD-Mono-VHS, Average ([4]; 8 hr): 24.0 | Plasma Concentration of CBD-Mono-VHS ([4]; 8 hr): 44.8 and 21.6 and 27.3 | Plasma Concentration of CBD-Mono-VHS, Average ([4]; 24 hr): 0.9 | Plasma Concentration of CBD-Mono-VHS ([4]; 24 hr): 0.0 and 2.5 and 2.6 | Concentration of CBD-Mono-Val-Mono-HS ([5]; Acid (pH 1.2), Time Point 0): 941 ng/mL | Concentration of CBD-Mono-Val-Mono-HS ([5]; Acid (pH 1.2), Time Point 15): 1380 ng/mL | Concentration of CBD-Mono-Val-Mono-HS ([5]; Acid (pH 1.2), Time Point 30): 1472 ng/mL | Concentration of CBD-Mono-Val-Mono-HS ([5]; Acid (pH 1.2), Time Point 60): 1579 ng/mL | Concentration of CBD-Mono-Val-Mono-HS ([5]; Acid (pH 1.2), Time Point 90): 1478 ng/mL | Concentration of CBD-Mono-Val-Mono-HS ([5]; Acid (pH 1.2), Time Point 120): 1519 ng/mL | Concentration of CBD-Mono-Val-Mono-HS ([5]; Base (pH 7.4), Time Point 0): 886 ng/mL | Concentration of CBD-Mono-Val-Mono-HS ([5]; Base (pH 7.4), Time Point 15): 1439 ng/mL | Concentration of CBD-Mono-Val-Mono-HS ([5]; Base (pH 7.4), Time Point 30): 1197 ng/mL | Concentration of CBD-Mono-Val-Mono-HS ([5]; Base (pH 7.4), Time Point 60): 1791 ng/mL | Concentration of CBD-Mono-Val-Mono-HS ([5]; Base (pH 7.4), Time Point 90): 1615 ng/mL | Concentration of CBD-Mono-Val-Mono-HS ([5]; Base (pH 7.4), Time Point 120): 1731 ng/mL | Stability under acidic (gastric juice) conditions, in words ([5]; pH 1.2, 37° C.): stable | Stability under physiologic / intestinal juice conditions, in words ([5]; pH 7.4, 37° C.): stable | Organ level of CBD-Mono-VHS, KIDNEY ([6]; 2 HR): 353 ng/organ | Organ level of CBD-Mono-VHS, KIDNEY ([6]; 4 HR): 115 ng/organ

Source: patent US11337950B2, “Biologically active cannabidiol analogs” (University of Mississippi, priority 2016, dated 2022)
